Assay results published in patent US20250011307A1, “CRYSTALLINE FORMS OF BIARYL YAP/TAZ-TEAD PROTEIN-PROTEIN INTERACTION INHIBITORS” (Novartis AG, priority 2021, published 2025).

Tests used:
Assay type in all cases: physicochemical
[1] = Solid state bulk stability stress test (HPLC degradation products, color, XRPD); design: key to CL color: A: No change; B: Slight discoloration; C: Medium discoloration; D: Strong discoloration; conditions: Compound A forms
[2] = Excipient compatibility stress test (HPLC degradation products, color); design: key to CL color: A: No change; B: Slight discoloration; C: Medium discoloration; D: Strong discoloration; conditions: Compound A forms
[3] = Solubility after equilibration at 25° C. for 24 h, with final pH and XRPD of solid residues; conditions: Compound A forms
[4] = Xenon light stress test of bulk (HPLC degradation products, color, XRPD); design: key to CL color: A: No change; B: Slight discoloration; C: Medium discoloration; D: Strong discoloration; conditions: Compound A forms, Xenon light (1200 kLuxh, 25° C.)
Experimental: X-ray powder diffraction (XRPD) patterns were obtained using a Bruker Advance D8 in reflection geometry. Powders were analyzed using a zero background Si flat sample holder. The radiation used was Cu Kα (A=1.5418 Å). Patterns were measured between 2° and 40° 2theta. • Sample amount: 5-10 mg • Sample holder: zero background Si flat sample holder
X-ray powder diffraction (XRPD) patterns were obtained using a Bruker Advance D8 in reflection geometry. Powders were analyzed using a zero background Si flat sample holder. The radiation was Cu Kα (λ=1.5418 Å). Patterns were measured between 2° and 40° 2theta. • Sample amount: 5-10 mg • Sample holder: zero background Si flat sample holder

[5] = Hygroscopicity (loss on drying by TGA and XRPD, as is and after storage at 92% / 80% RH); conditions: Compound A forms; for Loss on drying by TGA [%]: TGA temperature per cell: Modification A 110° C., amorphous 119° C., 4-hydroxybenzoate 200° C.
[6] = 2 weeks 50° C./75% RH, 1% in mixture 1
[7] = 2 weeks 50° C./75% RH, 1% in mixture 2
[8] = 2 weeks 50° C./75% RH, 1% in mixture 3
[9] = 2 weeks 50° C./75% RH, HGC capsule powder
[10] = 2 weeks 50° C./75% RH, HPMC capsule powder
[11] = 2 weeks 70° C./11% RH, 1% in mixture 1
[12] = 2 weeks 70° C./11% RH, 1% in mixture 2
[13] = 2 weeks 70° C./11% RH, 1% in mixture 3
[14] = 2 weeks 70° C./11% RH, HGC capsule powder
[15] = 2 weeks 70° C./11% RH, HPMC capsule powder
[16] = 2 weeks 70° C./75% RH, 1% in mixture 1
[17] = 2 weeks 70° C./75% RH, 1% in mixture 2
[18] = 2 weeks 70° C./75% RH, 1% in mixture 3
[19] = 2 weeks 70° C./75% RH, HPC capsule powder
[20] = 2 weeks 70° C./75% RH, HPMC capsule powder
[21] = FaSSIF V2 pH 6.5, target concentration 20 mg/10 mL
[22] = FeSSIF V2 pH 5.8, target concentration 20 mg/10 mL
[23] = SGF pH 2.0, target concentration 20 mg/10 mL
[24] = Water, target concentration 20 mg/10 mL
[25] = pH 1.2, 100 mM HCl, target concentration 20 mg/10 mL
[26] = pH 3.0, 50 mM citrate buffer, target concentration 20 mg/10 mL
[27] = pH 4.7, 50 mM acetate buffer, target concentration 20 mg/10 mL
[28] = pH 6.8, 50 mM phosphate buffer with 50 mM Na taurocholate
[29] = pH 6.8, 50 mM phosphate buffer with 50 mM Na taurocholate, target concentration 20 mg/10 mL
[30] = pH 6.8, 50 mM phosphate buffer, target concentration 20 mg/10 mL
[31] = Hygroscopicity, before RH storage

## CNC(=O)c1cnc(OCCO)c(F)c1-c1c(Cl)c(F)cc2c1C[C@](c1ccccc1)([C@@H]1CCCN1)O2 [Compound A 4-hydroxybenzoate, 4-((2S,4S)-5-Chloro-6-fluoro-2-phenyl-2-((S)-pyrrolidin-2-yl)-2,3-dihydrobenzofuran-4-yl)-5-fluoro-6-(2-hydroxyethoxy)-N-methylnicotinamide]
[1]; 2 weeks 50° C./75% RH
  Bulk (XRPD): No change
  CL color: A
  DP[%] degradation products, Bulk (HPLC): 0.2%
[1]; 2 weeks 80° C., 11% RH
  Bulk (XRPD): No change
  CL color: A
  DP[%] degradation products, Bulk (HPLC): 0.2%
[1]; 2 weeks 80° C./75% RH
  Bulk (XRPD): No change
  CL color: A
  DP[%] degradation products, Bulk (HPLC): 1.5%
[2]; [6]
  CL color: A
  DP[%] degradation products: 0.3%
[2]; [7]
  CL color: A
  DP[%] degradation products: 0.2%
[2]; [8]
  CL color: A
  DP[%] degradation products: 0.2%
[2]; [9]
  CL color: A
  DP[%] degradation products: 0.3%
[2]; [10]
  CL color: A
  DP[%] degradation products: 0.6%
[2]; [11]
  CL color: A
  DP[%] degradation products: 0.4%
[2]; [12]
  CL color: A
  DP[%] degradation products: 0.1%
[2]; [13]
  CL color: A
  DP[%] degradation products: 0.2%
[2]; [14]
  CL color: A
  DP[%] degradation products: 0.3%
[2]; [15]
  CL color: A
  DP[%] degradation products: 0.6%
[2]; [16]
  CL color: A
  DP[%] degradation products: 3.6%
[2]; [17]
  CL color: A
  DP[%] degradation products: 2.3%
[2]; [18]
  CL color: A
  DP[%] degradation products: 1.5%
[2]; [19]
  CL color: A
  DP[%] degradation products: 1.3%
[2]; [20]
  CL color: A
  DP[%] degradation products: 3.1%
[3]; FaSSIF V2 pH 6.5
  final pH: (6.55)
[3]; [21]
  Sol. (solubility): >2, mg/mL
[3]; FeSSIF V2 pH 5.8
  final pH: (5.86)
[3]; [22]
  Sol. (solubility): >2, mg/mL
[3]; SGF pH 2.0
  final pH: (2.36)
[3]; [23]
  Sol. (solubility): >2, mg/mL
[3]; Water
  final pH: (7.66)
[3]; [24]
  Sol. (solubility): >2, mg/mL
[3]; pH 1.2, 100 mM HCl
  final pH: (1.18)
[3]; [25]
  Sol. (solubility): >2, mg/mL
[3]; pH 3.0, 50 mM citrate buffer
  final pH: (3.12)
[3]; [26]
  Sol. (solubility): >2, mg/mL
[3]; pH 4.7, 50 mM acetate buffer
  final pH: (4.78)
[3]; [27]
  Sol. (solubility): >2, mg/mL
[3]; pH 6.8, 50 mM phosphate buffer
  final pH: (6.75)
[3]; [28]
  final pH: (6.72)
[3]; [29]
  Sol. (solubility): >2, mg/mL
[3]; [30]
  Sol. (solubility): >2, mg/mL
[4]; amber vial
  Bulk amber vial (XRPD): No change
  CL color: A
  DP[%] degradation products, Bulk amber vial (HPLC): 0.2%
[4]; clear vial
  Bulk clear vial (XPRD): No change
  CL color: A
  DP[%] degradation products, Bulk clear vial (HPLC): 0.2%
[5]; After 1 day at 80% RH
  XRPD: No change
  Loss on drying by TGA [%]: 0.6% (200° C.)
[5]; After 1 day at 92% RH
  XRPD: No change
  Loss on drying by TGA [%]: 0.7% (200° C.)
[5]; [31]
  Loss on drying by TGA [%]: 0.5% (200° C.)

## CNC(=O)c1cnc(OCCO)c(F)c1-c1c(Cl)c(F)cc2c1C[C@](c1ccccc1)([C@@H]1CCCN1)O2 [Compound A Free form amorphous, 4-((2S,4S)-5-Chloro-6-fluoro-2-phenyl-2-((S)-pyrrolidin-2-yl)-2,3-dihydrobenzofuran-4-yl)-5-fluoro-6-(2-hydroxyethoxy)-N-methylnicotinamide]
[1]; 2 weeks 50° C./75% RH
  Bulk (XRPD): No change
  CL color: A
  DP[%] degradation products, Bulk (HPLC): 2.1%
[1]; 2 weeks 80° C., 11% RH
  Bulk (XRPD): No change
  CL color: A
  DP[%] degradation products, Bulk (HPLC): 5.5%
[1]; 2 weeks 80° C./75% RH
  Bulk (XRPD): gel
  DP[%] degradation products, Bulk (HPLC): 15.3%
[3]; FaSSIF V2 pH 6.5
  final pH: (7.98)
[3]; [21]
  Sol. (solubility): >2, mg/mL
[3]; FeSSIF V2 pH 5.8
  final pH: (5.93)
[3]; [22]
  Sol. (solubility): >2 mg/mL
[3]; SGF pH 2.0
  final pH: (2.37)
[3]; [23]
  Sol. (solubility): >2, mg/mL
[3]; Water
  final pH: (9.26)
[3]; [24]
  Sol. (solubility): 0.28, mg/mL
[3]; pH 1.2, 100 mM HCl
  final pH: (1.19)
[3]; [25]
  Sol. (solubility): >2 mg/mL
[3]; pH 3.0, 50 mM citrate buffer
  final pH: (3.13)
[3]; [26]
  Sol. (solubility): >2, mg/mL
[3]; pH 4.7, 50 mM acetate buffer
  final pH: (4.89)
[3]; [27]
  Sol. (solubility): >2, mg/mL
[3]; pH 6.8, 50 mM phosphate buffer
  final pH: (6.97)
[3]; [28]
  final pH: (6.87)
[3]; [29]
  Sol. (solubility): >2, mg/mL
[3]; [30]
  Sol. (solubility): >2, mg/mL
[4]; amber vial
  Bulk amber vial (XRPD): No change
  CL color: A
  DP[%] degradation products, Bulk amber vial (HPLC): 1.0%
[4]; clear vial
  Bulk clear vial (XPRD): No change
  CL color: B
  DP[%] degradation products, Bulk clear vial (HPLC): 7.4%
[5]; After 1 day at 80% RH
  XRPD: No change
  Loss on drying by TGA [%]: 2.0% (119° C.)
[5]; After 1 day at 92% RH
  XRPD: No change
  Loss on drying by TGA [%]: 2.5% (119° C.)
[5]; [31]
  Loss on drying by TGA [%]: 1.1% (119° C.)
